Results taken from patent publication US20230148005A1, “MACROCYCLIC COMPOUNDS AND USES THEREOF” (THESEUS PHARMACEUTICALS, INC., priority 2020, published 2023).

Experiments:
[1] = biological target: EGFR^L858R (Homo sapiens, UniProt P00533, L858R); test: in vitro kinase assay (HTRF KinEASE-TK kit), L; assay type: biochemical; conditions: kinase inhibition
Source text: (§1) Assays using an in vitro kinase assay kit (HTRF KinEASE-TK kit) can be used to study the inhibitory activity of compounds described herein with respect to EGFR mutants such as EGFR^L858R, EGFR^L58R/T790M, and EGFR^L858R/T790M/C^797S.

[2] = tested on: Ba/F3 Parental; test: Ba/F3 viability assay (CellTiter-Glo), parental; assay type: cell-based; conditions: Mus musculus, BaF3, anti-proliferation
Source text: (§2) Inhibition of cell proliferation can be studied using Ba/F3 viability assays, including the Promega CellTiter-Glo cell viability assay. This assay can be used to study the effect of compounds described herein in the following assays: (1) Ba/F3 Parental; (2) Ba/F3 EGFR-Del19/T790M; (3); Ba/F3 EGFR-Del19/C797S; and (4) Ba/F3 EGFR-Del19/T790M/C797S.

[3] = biological target: Ba/F3 EGFR-Del19/T790M (Homo sapiens, UniProt P00533, T790M, cells depend on it, form not given); test: Ba/F3 viability assay (CellTiter-Glo), DT; assay type: cell-based; conditions: anti-proliferation, read-out: BaF3 DT IC50
Sequence of Ba/F3 EGFR-Del19/T790M (P00533 with tags, fused parts or gaps DEL746-750/T790M, form open): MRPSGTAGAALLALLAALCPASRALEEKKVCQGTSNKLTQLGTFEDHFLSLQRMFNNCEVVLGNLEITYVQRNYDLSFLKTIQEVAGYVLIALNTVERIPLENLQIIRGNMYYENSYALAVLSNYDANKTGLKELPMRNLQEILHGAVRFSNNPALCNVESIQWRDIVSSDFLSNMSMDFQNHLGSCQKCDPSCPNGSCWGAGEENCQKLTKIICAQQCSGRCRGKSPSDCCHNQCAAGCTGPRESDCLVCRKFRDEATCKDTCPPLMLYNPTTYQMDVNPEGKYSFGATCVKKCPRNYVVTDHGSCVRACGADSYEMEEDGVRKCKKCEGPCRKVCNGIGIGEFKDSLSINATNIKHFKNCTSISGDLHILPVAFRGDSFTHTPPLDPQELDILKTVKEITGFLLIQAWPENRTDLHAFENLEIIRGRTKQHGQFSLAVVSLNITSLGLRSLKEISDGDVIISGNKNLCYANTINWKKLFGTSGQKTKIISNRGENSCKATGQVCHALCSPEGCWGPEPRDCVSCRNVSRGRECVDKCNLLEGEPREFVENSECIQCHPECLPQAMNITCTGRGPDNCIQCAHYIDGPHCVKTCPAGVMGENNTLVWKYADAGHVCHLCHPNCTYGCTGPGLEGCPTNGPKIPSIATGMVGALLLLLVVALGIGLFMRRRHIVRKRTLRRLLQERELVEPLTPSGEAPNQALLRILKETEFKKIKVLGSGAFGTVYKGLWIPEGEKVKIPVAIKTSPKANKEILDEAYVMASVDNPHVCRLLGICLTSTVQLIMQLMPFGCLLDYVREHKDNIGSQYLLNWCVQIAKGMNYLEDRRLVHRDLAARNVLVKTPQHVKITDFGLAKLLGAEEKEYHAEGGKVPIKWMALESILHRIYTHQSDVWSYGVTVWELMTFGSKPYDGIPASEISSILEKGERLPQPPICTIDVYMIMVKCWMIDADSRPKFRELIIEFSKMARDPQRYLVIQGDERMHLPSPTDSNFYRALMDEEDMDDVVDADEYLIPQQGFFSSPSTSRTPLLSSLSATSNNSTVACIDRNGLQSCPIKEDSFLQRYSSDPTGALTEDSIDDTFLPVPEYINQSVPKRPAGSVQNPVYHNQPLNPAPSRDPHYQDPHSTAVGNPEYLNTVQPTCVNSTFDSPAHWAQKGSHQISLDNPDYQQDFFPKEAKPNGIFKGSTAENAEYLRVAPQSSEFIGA
Source text: as §2

[4] = biological target: Ba/F3 EGFR-Del19/C797S (Homo sapiens, UniProt P00533, C797S, cells depend on it, form not given); test: Ba/F3 viability assay (CellTiter-Glo), DC; assay type: cell-based; conditions: anti-proliferation, read-out: BaF3 DC IC50
Source text: as §2

[5] = biological target: Ba/F3 EGFR-Del19/T790M/C797S (Homo sapiens, UniProt P00533, T790M/C797S, cells depend on it, form not given); test: Ba/F3 viability assay (CellTiter-Glo), DTC; assay type: cell-based; conditions: anti-proliferation, read-out: BaF3 DTC IC50
Sequence of Ba/F3 EGFR-Del19/T790M/C797S (P00533 with tags, fused parts or gaps DEL746-750/T790M/C797S, form open): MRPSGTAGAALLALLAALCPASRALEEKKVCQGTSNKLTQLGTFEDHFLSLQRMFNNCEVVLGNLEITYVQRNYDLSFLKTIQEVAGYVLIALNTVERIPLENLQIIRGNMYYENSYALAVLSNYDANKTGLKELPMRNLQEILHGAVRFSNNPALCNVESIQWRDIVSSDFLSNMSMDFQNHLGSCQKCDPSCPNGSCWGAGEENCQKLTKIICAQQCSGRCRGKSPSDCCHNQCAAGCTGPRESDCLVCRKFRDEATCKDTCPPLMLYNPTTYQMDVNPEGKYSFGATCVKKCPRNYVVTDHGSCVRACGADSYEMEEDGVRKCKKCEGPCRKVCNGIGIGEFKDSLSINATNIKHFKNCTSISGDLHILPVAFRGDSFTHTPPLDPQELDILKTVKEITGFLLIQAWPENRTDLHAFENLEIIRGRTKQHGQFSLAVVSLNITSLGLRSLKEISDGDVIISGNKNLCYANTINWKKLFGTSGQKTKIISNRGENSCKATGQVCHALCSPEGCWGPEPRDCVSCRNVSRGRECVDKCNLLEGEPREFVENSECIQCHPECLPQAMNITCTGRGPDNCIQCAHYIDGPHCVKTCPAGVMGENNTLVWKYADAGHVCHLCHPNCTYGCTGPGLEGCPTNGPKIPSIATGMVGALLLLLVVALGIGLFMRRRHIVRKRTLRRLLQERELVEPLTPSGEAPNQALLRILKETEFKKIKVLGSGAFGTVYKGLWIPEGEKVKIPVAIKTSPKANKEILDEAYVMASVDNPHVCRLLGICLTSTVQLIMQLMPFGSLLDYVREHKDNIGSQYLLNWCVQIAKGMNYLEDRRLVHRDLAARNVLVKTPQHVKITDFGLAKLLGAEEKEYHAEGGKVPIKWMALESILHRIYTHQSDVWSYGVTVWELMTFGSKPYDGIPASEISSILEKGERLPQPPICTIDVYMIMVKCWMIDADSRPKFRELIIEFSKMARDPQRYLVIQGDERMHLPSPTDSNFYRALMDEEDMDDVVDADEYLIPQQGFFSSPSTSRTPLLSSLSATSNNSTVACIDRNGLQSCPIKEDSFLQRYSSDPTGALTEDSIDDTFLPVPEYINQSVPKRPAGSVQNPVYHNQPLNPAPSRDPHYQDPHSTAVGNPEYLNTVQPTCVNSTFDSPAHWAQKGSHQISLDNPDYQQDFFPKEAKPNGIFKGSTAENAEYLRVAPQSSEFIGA
Source text: as §2

[6] = biological target: EGFR^L858R/T790M/C^797S (Homo sapiens, UniProt P00533, C797S/L858R/T790M); test: in vitro kinase assay (HTRF KinEASE-TK kit), LTC; assay type: biochemical; conditions: kinase inhibition
Sequence of EGFR^L858R/T790M/C^797S (P00533 25-1210 T790M/C797S/L858R): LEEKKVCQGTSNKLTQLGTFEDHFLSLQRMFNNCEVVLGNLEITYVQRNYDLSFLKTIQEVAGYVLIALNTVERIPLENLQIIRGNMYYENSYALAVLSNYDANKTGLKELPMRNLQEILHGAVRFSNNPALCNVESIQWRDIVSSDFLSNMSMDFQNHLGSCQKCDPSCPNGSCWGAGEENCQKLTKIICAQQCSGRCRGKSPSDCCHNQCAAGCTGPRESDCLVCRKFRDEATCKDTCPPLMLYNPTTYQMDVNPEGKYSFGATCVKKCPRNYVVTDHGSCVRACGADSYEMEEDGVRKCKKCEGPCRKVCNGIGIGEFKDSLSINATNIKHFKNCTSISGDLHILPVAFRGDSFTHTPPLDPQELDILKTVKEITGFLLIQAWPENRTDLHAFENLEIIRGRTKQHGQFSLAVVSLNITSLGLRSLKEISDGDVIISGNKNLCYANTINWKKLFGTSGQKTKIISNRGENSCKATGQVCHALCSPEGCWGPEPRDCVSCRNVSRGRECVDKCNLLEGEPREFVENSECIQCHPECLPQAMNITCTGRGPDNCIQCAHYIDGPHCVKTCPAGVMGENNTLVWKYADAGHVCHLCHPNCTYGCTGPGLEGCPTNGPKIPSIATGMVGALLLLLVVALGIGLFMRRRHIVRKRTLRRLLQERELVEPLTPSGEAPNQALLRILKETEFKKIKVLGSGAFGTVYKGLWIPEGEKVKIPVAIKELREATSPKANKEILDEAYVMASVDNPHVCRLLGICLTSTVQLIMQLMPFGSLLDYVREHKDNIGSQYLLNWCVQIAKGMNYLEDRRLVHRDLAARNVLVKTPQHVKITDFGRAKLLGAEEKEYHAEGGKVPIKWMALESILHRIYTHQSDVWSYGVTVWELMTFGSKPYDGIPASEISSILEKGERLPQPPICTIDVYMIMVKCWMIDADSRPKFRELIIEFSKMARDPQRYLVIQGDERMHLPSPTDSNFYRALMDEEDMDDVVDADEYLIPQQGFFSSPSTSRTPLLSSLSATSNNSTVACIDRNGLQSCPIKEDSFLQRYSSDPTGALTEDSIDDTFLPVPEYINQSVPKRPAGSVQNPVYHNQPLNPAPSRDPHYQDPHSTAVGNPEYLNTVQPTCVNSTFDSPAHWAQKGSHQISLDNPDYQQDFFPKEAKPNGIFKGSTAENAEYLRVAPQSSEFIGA
Source text: as §1

[7] = biological target: EGFR^L58R/T790M (Homo sapiens, UniProt P00533, L858R/T790M); test: in vitro kinase assay (HTRF KinEASE-TK kit), LT; assay type: biochemical; conditions: kinase inhibition
Sequence of EGFR^L58R/T790M (P00533 25-1210 T790M/L858R): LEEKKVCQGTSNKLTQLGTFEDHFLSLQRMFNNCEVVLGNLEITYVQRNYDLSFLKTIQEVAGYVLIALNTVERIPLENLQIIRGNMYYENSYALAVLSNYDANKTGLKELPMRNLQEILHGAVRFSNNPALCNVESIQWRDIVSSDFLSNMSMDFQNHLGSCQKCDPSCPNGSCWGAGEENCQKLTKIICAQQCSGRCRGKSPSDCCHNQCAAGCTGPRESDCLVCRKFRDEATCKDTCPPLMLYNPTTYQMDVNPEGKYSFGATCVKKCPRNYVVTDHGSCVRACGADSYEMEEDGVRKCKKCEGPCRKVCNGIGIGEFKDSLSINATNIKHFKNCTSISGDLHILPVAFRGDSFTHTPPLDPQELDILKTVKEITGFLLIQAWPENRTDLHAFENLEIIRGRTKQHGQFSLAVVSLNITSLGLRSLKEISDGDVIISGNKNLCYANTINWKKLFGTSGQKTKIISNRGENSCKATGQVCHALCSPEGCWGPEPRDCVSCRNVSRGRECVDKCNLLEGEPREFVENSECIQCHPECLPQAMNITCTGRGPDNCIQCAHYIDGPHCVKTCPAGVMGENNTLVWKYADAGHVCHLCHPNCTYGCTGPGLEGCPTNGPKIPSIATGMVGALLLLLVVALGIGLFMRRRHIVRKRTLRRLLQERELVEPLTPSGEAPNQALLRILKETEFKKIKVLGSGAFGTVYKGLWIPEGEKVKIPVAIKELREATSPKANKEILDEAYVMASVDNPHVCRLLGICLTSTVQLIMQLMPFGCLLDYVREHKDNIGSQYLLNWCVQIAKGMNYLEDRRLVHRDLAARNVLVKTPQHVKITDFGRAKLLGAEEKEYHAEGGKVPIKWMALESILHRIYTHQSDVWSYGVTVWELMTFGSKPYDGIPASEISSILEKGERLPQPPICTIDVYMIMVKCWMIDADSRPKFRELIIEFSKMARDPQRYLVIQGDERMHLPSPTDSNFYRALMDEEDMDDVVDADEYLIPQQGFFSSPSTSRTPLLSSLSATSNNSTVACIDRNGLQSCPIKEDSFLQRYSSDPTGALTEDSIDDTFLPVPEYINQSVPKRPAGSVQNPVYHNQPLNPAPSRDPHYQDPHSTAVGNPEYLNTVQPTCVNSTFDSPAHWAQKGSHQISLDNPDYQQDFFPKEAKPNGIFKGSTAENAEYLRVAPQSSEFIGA
Source text: as §1

Row | IC50 [1] | IC50 [6] | IC50 [7] | SMILES | IC50 [2] | GI50 [3] | GI50 [4] | GI50 [5]
1 | < 10 nM | < 10 nM | < 10 nM | C[C@H]1CCOc2c(cnn2C)-c2nccc(n2)Nc2cc3c(cn2)c(-c2cccc(OCCN(C)C)c2)nn31 [(110)] | 100 to 1000 nM | < 10 nM | < 10 nM | < 10 nM
2 | < 10 nM | < 10 nM | < 10 nM | C[C@H]1CCOc2c(cnn2C)-c2nccc(n2)Nc2cc3c(cn2)c(-c2cccc(N4CCC(O)CC4)c2)nn31 [(111)] | 100 to 1000 nM | < 10 nM | 10 to 100 nM | < 10 nM
3 | < 10 nM | < 10 nM | < 10 nM | C[C@H]1CCOc2c(cnn2C)-c2nccc(n2)Nc2cc3c(cn2)c(N2CC[C@@H](O)C2)nn31 [(112)] | 100 to 1000 nM | < 10 nM | 10 to 100 nM | < 10 nM
4 | < 10 nM | < 10 nM | < 10 nM | C[C@H]1CCOc2c(cnn2C)-c2nccc(n2)Nc2cc3c(cn2)c(N2CC[C@H](O)C2)nn31 [(113)] | 100 to 1000 nM | < 10 nM | < 10 nM | < 10 nM
5 | 10 to 100 nM | < 10 nM | < 10 nM | C[C@H]1CCOc2c(cnn2C)-c2nccc(n2)Nc2cc3c(cn2)c(-c2cn(C)cn2)nn31 [(114)] | 100 to 1000 nM | 10 to 100 nM | 10 to 100 nM | 10 to 100 nM
6 | 10 to 100 nM | < 10 nM | < 10 nM | C[C@H]1CCOc2c(cnn2C)-c2nccc(n2)Nc2cc3c(cn2)c(-c2cnn(CCCN4CCOCC4)c2)nn31 [(115)] | 100 to 1000 nM | 10 to 100 nM | 10 to 100 nM | 10 to 100 nM
7 | 10 to 100 nM | < 10 nM | < 10 nM | C[C@H]1CCOc2c(cnn2C)-c2nccc(n2)Nc2cc3c(cn2)c(-c2cnn(CCN4CCOCC4)c2)nn31 [(116)] | 100 to 1000 nM | 10 to 100 nM | 10 to 100 nM | 10 to 100 nM
8 | < 10 nM | < 10 nM | < 10 nM | CCN(CC)CCn1cc(-c2nn3c4cc(ncc24)Nc2ccnc(n2)-c2cnn(C)c2OCC[C@@H]3C)cn1 [(117)] | 10 to 100 nM | < 10 nM | 10 to 100 nM | < 10 nM
9 | 10 to 100 nM | < 10 nM | < 10 nM | CC(C)N1CCN(Cc2csc(-c3nn4c5cc(ncc35)Nc3ccnc(n3)-c3cnn(C)c3OCC[C@@H]4C)n2)CC1 [(118)] | ≥ 1000 nM | 100 to 1000 nM | 100 to 1000 nM | 10 to 100 nM
10 | < 10 nM | < 10 nM | < 10 nM | C[C@H]1CCOc2c(cnn2C)-c2nccc(n2)Nc2cc3c(cn2)c(-c2ccc(CN4CCNCC4)n2C)nn31 [(119)] | 100 to 1000 nM | < 10 nM | < 10 nM | < 10 nM
11 | < 10 nM | < 10 nM | < 10 nM | C[C@H]1CCOc2c(cnn2C)-c2nccc(n2)Nc2cc3c(cn2)c(-c2ccc(CN4CCOCC4)n2C)nn31 [(120)] | 100 to 1000 nM | < 10 nM | 10 to 100 nM | < 10 nM
12 | < 10 nM | < 10 nM | < 10 nM | C[C@H]1CCOc2c(cnn2C)-c2nccc(n2)Nc2cc3c(cn2)c(-c2ccc(CN4CCCCC4)n2C)nn31 [(121)] | 100 to 1000 nM | < 10 nM | < 10 nM | < 10 nM
13 | < 10 nM | < 10 nM | < 10 nM | CC(C)N1CCN(Cc2ccc(-c3nn4c5cc(ncc35)Nc3ccnc(n3)-c3cnn(C)c3OCC[C@@H]4C)n2C)CC1 [(122)] | 100 to 1000 nM | < 10 nM | < 10 nM | < 10 nM
14 | < 10 nM | < 10 nM | < 10 nM | C[C@H]1CCOc2c(cnn2C)-c2nccc(n2)Nc2cc3c(cn2)c(-c2ccc(CN4CCN(C5CC5)CC4)n2C)nn31 [(123)] | 100 to 1000 nM | < 10 nM | < 10 nM | < 10 nM
15 | < 10 nM | < 10 nM | < 10 nM | C[C@H]1CCOc2c(cnn2C)-c2nccc(n2)Nc2cc3c(cn2)c(-c2ccc(CN4CCN(C5COC5)CC4)n2C)nn31 [(124)] | 100 to 1000 nM | < 10 nM | < 10 nM | < 10 nM
16 | 10 to 100 nM | < 10 nM | < 10 nM | CCn1c(CN2CCN(C3CC3)CC2)ccc1-c1nn2c3cc(ncc13)Nc1ccnc(n1)-c1cnn(C)c1OCC[C@@H]2C [(125)] | 100 to 1000 nM | < 10 nM | 10 to 100 nM | < 10 nM
17 | < 10 nM | < 10 nM | < 10 nM | CCn1cc(-c2nn3c4cc(ncc24)Nc2ccnc(n2)-c2cnn(C)c2OCC[C@@H]3C)cc1CN1CCN(C2CC2)CC1 [(126)] | 100 to 1000 nM | < 10 nM | < 10 nM | < 10 nM
18 | < 10 nM | < 10 nM | < 10 nM | C[C@H]1CCOc2c(cnn2C)-c2nccc(n2)Nc2cc3c(cn2)c(-c2ccc(CN(C)C)n2C)nn31 [(127)] | 100 to 1000 nM | < 10 nM | < 10 nM | < 10 nM
19 | 10 to 100 nM | < 10 nM | < 10 nM | CCN1CCC(Oc2cc(F)cc(-c3nn4c5cc(ncc35)Nc3ccnc(n3)-c3cnn(C)c3OCC[C@@H]4C)c2)CC1 [(128)] | 100 to 1000 nM | 10 to 100 nM | 10 to 100 nM | 10 to 100 nM
20 | 10 to 100 nM | < 10 nM | < 10 nM | C[C@H]1CCOc2c(cnn2C)-c2nccc(n2)Nc2cc3c(cn2)c(-c2cc(F)cc(OCCN(C)C)c2)nn31 [(129)] | 100 to 1000 nM | 10 to 100 nM | 10 to 100 nM | 10 to 100 nM
21 | 10 to 100 nM | < 10 nM | < 10 nM | C[C@H]1CCOc2c(cnn2C)-c2nccc(n2)Nc2cc3c(cn2)c(-c2cc(OCCN(C)C)ccc2F)nn31 [(130)] | ≥ 1000 nM | 10 to 100 nM | 10 to 100 nM | 10 to 100 nM
22 | < 10 nM | < 10 nM | < 10 nM | C[C@H]1CCOc2c(cnn2C)-c2nccc(n2)Nc2cc3c(cn2)c(-c2ccc(F)c(OCCN(C)C)c2)nn31 [(131)] | 100 to 1000 nM | < 10 nM | < 10 nM | < 10 nM
23 | 10 to 100 nM | < 10 nM | < 10 nM | CCN(CC)CCN(C)c1cc(F)cc(-c2nn3c4cc(ncc24)Nc2ccnc(n2)-c2cnn(C)c2OCC[C@@H]3C)c1 [(132)] | 100 to 1000 nM | 10 to 100 nM | 10 to 100 nM | 10 to 100 nM
24 | 10 to 100 nM | < 10 nM | < 10 nM | CCN(CC)CCOc1cc(F)cc(-c2nn3c4cc(ncc24)Nc2ccnc(n2)-c2cnn(C)c2OCC[C@@H]3C)c1 [(133)] | 100 to 1000 nM | 10 to 100 nM | 10 to 100 nM | 10 to 100 nM
25 | < 10 nM | < 10 nM | < 10 nM | Cc1cc(OCCN(C)C)cc(-c2nn3c4cc(ncc24)Nc2ccnc(n2)-c2cnn(C)c2OCC[C@@H]3C)c1 [(134)] | 100 to 1000 nM | 10 to 100 nM | 10 to 100 nM | 10 to 100 nM
26 | < 10 nM | < 10 nM | < 10 nM | CCCN1CCN(Cc2ccc(-c3nn4c5cc(ncc35)Nc3ccnc(n3)-c3cnn(C)c3OCC[C@@H]4C)n2C)CC1 [(135)] | 100 to 1000 nM | < 10 nM | < 10 nM | < 10 nM
27 | < 10 nM | < 10 nM | < 10 nM | COCCN(C)Cc1ccc(-c2nn3c4cc(ncc24)Nc2ccnc(n2)-c2cnn(C)c2OCC[C@@H]3C)n1C [(136)] | 100 to 1000 nM | < 10 nM | < 10 nM | < 10 nM
28 | < 10 nM | < 10 nM | < 10 nM | CCN(CC)Cc1ccc(-c2nn3c4cc(ncc24)Nc2ccnc(n2)-c2cnn(C)c2OCC[C@@H]3C)n1C [(137)] | 100 to 1000 nM | < 10 nM | < 10 nM | < 10 nM
29 | < 10 nM | < 10 nM | < 10 nM | CCCN(C)Cc1ccc(-c2nn3c4cc(ncc24)Nc2ccnc(n2)-c2cnn(C)c2OCC[C@@H]3C)n1C [(138)] | 100 to 1000 nM | < 10 nM | < 10 nM | < 10 nM
30 | < 10 nM | < 10 nM | < 10 nM | C[C@H]1CCOc2c(cnn2C)-c2nccc(n2)Nc2cc3c(cn2)c(-c2cc(CN4CCOCC4)n(C)c2)nn31 [(139)] | 100 to 1000 nM | < 10 nM | < 10 nM | < 10 nM
